Results: patent publication US20080226648A1, “Methods for Treating Stress and Affecting Biological Immune Systems” (priority 2004, published 2008)
Where a name gives a salt, the structure may show the parent alone.

Key:
Format in all cases: in vivo
IL-2 [1] = assay: Serum IL-2 concentration (RIA) in goats pre- and post-operation
Protocol: (§1) An experiment was conducted on sixteen castrated adult goats, which were randomly divided into control group (n=8) and treatment group (TG, n=8); housed separately; and fed with the same nutrient level. The TG was treated orally with a cysteamine compound (the cysteamine compound is preferably cysteamine hydrochloride, where a dose of 45 mg/kg of body weight was administered, with 30% of the 45 mg/kg dosage comprising the cysteamine compound) provided by Shanghai Walcom Bio-Chem Ltd). Both groups were subjected to rumen operation and duodenum operation.
(§2) This experiment was conducted in four phases: (a) Roughage phase pre-operation: from day 18 to day 14 before the operation, both groups of goats were fed with roughage (dried peanut stalk) and water; (b) Concentrate phase pre-operation: day 13 to day 1 before the operation (in total 13 days), both groups were fed with roughage and concentrate (50 g/head), and the TG was also treated with a cysteamine compound (using dosages described above) at the same time; (c) Rumen operation phase: after completion of the concentrate phase pre-operation, the rumen operation was performed to affix a fistula on the rumen, which was followed by 18 days of recovery; (d) Duodenum operation phase: 18 days after the rumen operation, a second operation was performed to affix a fistula on the duodenum, following which the goats were allowed to have 17 days of recovery to complete this experiment. The feeding diet during the operation was same as that of concentrate phase per-operation.
(§3) While conducting the experiment, blood samples were periodically collected. In general, blood was collected via the neck vein before morning feeding. Part of the blood from each sample was stored in tubes containing heparin for anti-coagulation. The remaining part of each blood sample was centrifuged and then stored the serum at −20° C. Blood samples were collected at the following times: (a) Day 4 of the Roughage phase pre-operation; (b) Day 13 of the Concentrate phase (one day before the operation, B1); (c) 10 days after the 1st operation (rumen operation); and (d) 6 days and 17 days after the 2nd operation (duodenum operation).
(§4) Serum IL-2, cortisol concentration and lymphatic transformation testing were also performed during the experiment. […] To perform lymphatic cells transformation test, the blood samples from both groups were treated as follows: 3 tubes/sample, with blood sample 100 ul/tube for PHA− (PHA−: without PHA) and 3 tubes/sample for PHA+(PHA+: each tube added with 50 ul PHA diluted solution); cells in both PHA− and PHA+ were cultured for total 72 hours. After 48 hours of cell culture, 1 uL ^3H-TdR was added to each tube with and mixed with cells and incubated further for 24 hours. At the completion of the culturing process, the cells were lysed. The lysate from both PHA− and PHA+ tubes were transferred to scintillation bottles, dried at 80° C., then added with 5 ml scintillation solution. The solutions were stored overnight and tested for cpm. SI index implies the rate of lymphatic cells transformation induced by lectin, SI=cpm(PHA+)/cpm(PHA−).
(§5) IL-2 and cortisol testing kits were used. To prepare RPMI-1640 cell culture medium, RPMI-1640 powder was added with distillated water and filtered, and 20% Fetal Bovine Serum, Penicillin (100 U/ml) as well as Streptomycin (100 U/ml) was added. 2 ml culture medium solution was then added to each tube. In addition, diluted PHA, [Methy-^3H] Thymidine with radioactivity 1 mci/m, and Scintillation solution: PPO (2,5, Diphenyloxazole,) 5 g POPOP(1,4bis [5-phenyloxazolyl] benzene) 0.3 g Dimethyl benzene: 800 mL; 100% ethanol: 200 ml were added to each tube.
All data from the experiment (see Table 1) were expressed in mean±SE and analyzed by Excel software for t-test analysis, where P<0.05 implies significant difference, and 0.05<P<0.15 implies changes. The symbol “§” in Table 1 denotes TG treated with Cysteamine. […]

lymphatic cells = assay: Lymphatic cells transformation test (PHA, 3H-TdR, SI) on blood of goats pre- and post-operation
Protocol: as §1, §2
While conducting the experiment, blood samples were periodically collected. In general, blood was collected via the neck vein before morning feeding. Part of the blood from each sample was stored in tubes containing heparin for anti-coagulation. […]
IL-2 and cortisol testing kits were used. […] Thymidine with radioactivity 1 mci/m, and Scintillation solution: PPO (2,5, Diphenyloxazole,) 5 g POPOP(1,4bis [5-phenyloxazolyl] benzene) 0.3 g Dimethyl benzene: 800 mL; 100% ethanol: 200 ml were added to each tube.

IL-2 [2] = assay: Plasma IL-2 measurement in mice; settings: 30 days
Text: (§6) Male C57BL/6N mice were used in Example 2, 28 mice in total. The 28 mice were used for pretest for 7 days before the treatment began. Two groups of 14 mice were then created. […] Each group contained six replicates and each replicate contained 8 mice. The treatment period was for 30 days. Lymphocyte transformation rate in plasma, white blood cell (WBC) count, natural killer cell activity, Plasma IL-2 (Kit provided by Jinginei Biotech) and IL-6 (Kit provided by Bender MedSystems) measurements, and antibody forming, cell count were performed according to methods known to the skilled artisan (see “Medical Immunology Experiment,” Publisher: People Hygiene, Published in 1999 in China, Editor: Xi Chuan Ping). Five days before the end of the treatment, 12 mice from each group (each replicate for 2 mice) were immunized with 0.5 ml of 2% sheep RBC (equivalent to −2×10^8 cells per ml) for testing spleen B-cells. The relative weights of spleen and thymus to body weight (mg/100 g BW) were also measured. All statistical analyses were performed on ANOVA.

IL-6 = assay: Plasma IL-6 measurement in mice; settings: 30 days
Text: as §6

K562 cells = assay: Natural killer cell killing rate in mice; settings: 30 days, killing of K562 cells
Text: (§7) Male C57BL/6N mice were used in Example 2, 28 mice in total. The 28 mice were used for pretest for 7 days before the treatment began. Two groups of 14 mice were then created. […] Each group contained six replicates and each replicate contained 8 mice. The treatment period was for 30 days.
(§8) Lymphocyte transformation rate in plasma, white blood cell (WBC) count, natural killer cell activity, Plasma IL-2 (Kit provided by Jinginei Biotech) and IL-6 (Kit provided by Bender MedSystems) measurements, and antibody forming, cell count were performed according to methods known to the skilled artisan (see “Medical Immunology Experiment,” Publisher: People Hygiene, Published in 1999 in China, Editor: Xi Chuan Ping). Five days before the end of the treatment, 12 mice from each group (each replicate for 2 mice) were immunized with 0.5 ml of 2% sheep RBC (equivalent to −2×10^8 cells per ml) for testing spleen B-cells. The relative weights of spleen and thymus to body weight (mg/100 g BW) were also measured. All statistical analyses were performed on ANOVA.
(§9) The WBC count, lymphocyte transformation rate (specifically in the spleen), antibody forming cell, and natural killer cell killing rate (based on the killing rate of K562 cells by natural killer cell) were measured and analyzed, as illustrated in Tables 4and5.

Male C57BL/6N mice [3] = assay: Relative weights of spleen and thymus to body weight in mice; settings: 30 days
Text: Male C57BL/6N mice were used in Example 2, 28 mice in total. The 28 mice were used for pretest for 7 days before the treatment began. Two groups of 14 mice were then created. […] Each group contained […]. The treatment period was for 30 days. Lymphocyte transformation rate in plasma, white blood cell (WBC) count, natural killer cell activity, Plasma IL-2 (Kit provided by Jinginei Biotech) and IL-6 (Kit provided by Bender MedSystems) measurements, and antibody forming, cell count were performed according to methods known to the skilled artisan (see “Medical Immunology Experiment,” Publisher: People Hygiene, Published in 1999 in China, Editor: Xi Chuan Ping). Five days before the end of the treatment, 12 mice from each group (each replicate for 2 mice) were immunized with 0.5 ml of 2% sheep RBC (equivalent to −2×10^8 cells per ml) for testing spleen B-cells. The relative weights of spleen and thymus to body weight (mg/100 g BW) were also measured. All statistical analyses were performed on ANOVA. After conducting all tests and analyses, the relative weight of certain immune organs, namely the thymus and spleen, were measured, as illustrated in Table 4.

lymphocyte = assay: Lymphocyte transformation rate (SI value, PHA) in mice; settings: 30 days
Text: Male C57BL/6N mice were used in Example 2, 28 mice in total. The 28 mice were used for pretest for 7 days before the treatment began. Two groups of 14 mice were then created. […] Each group contained six replicates and each replicate contained 8 mice. The treatment period was for 30 days. Lymphocyte transformation rate in plasma, white blood cell (WBC) count, natural killer cell activity, Plasma IL-2 (Kit provided by Jinginei Biotech) and IL-6 (Kit provided by Bender MedSystems) measurements, and antibody forming, cell count were performed according to methods known to the skilled artisan (see “Medical Immunology Experiment,” Publisher: People Hygiene, Published in 1999 in China, Editor: Xi Chuan Ping). Five days before the end of the treatment, 12 mice from each group (each replicate for 2 mice) were immunized with 0.5 ml of 2% sheep RBC (equivalent to −2×10^8 cells per ml) for testing spleen B-cells. The relative weights of spleen and thymus to body weight (mg/100 g BW) were also measured. All statistical analyses were performed on ANOVA. The WBC count, lymphocyte transformation rate (specifically in the spleen), antibody forming cell, and natural killer cell killing rate (based on the killing rate of K562 cells by natural killer cell) were measured and analyzed, as illustrated in Tables 4and5. […]

Male C57BL/6N mice [4] = assay: White blood cell (WBC) count in mice; settings: 30 days
Text: as §7, §8, §9

cortisol = assay: Serum cortisol concentration (RIA) in goats pre- and post-operation
Protocol: as §1, §2, §3, §4, §5
Cortisol concentrations of the two groups before the operation were substantially similar (20.51±4.1 for the control group versus 20.32±4.0 ug 1^−1 for the TG). Changes in cortisol concentration levels in the TG before and after the 1st operation were slight. […]

spleen B-cells = assay: Antibody forming cell count (spleen B-cells after sheep RBC immunization) in mice; settings: 30 days, immunized with sheep RBC
Text: as §7, §8, §9

## NCCS [Cysteamine hydrochloride, cysteamine hydrochloride]
IL-2 [1]; after 17 days from the 2nd operation
  difference in IL-2 concentration levels between the two groups: had disappeared
IL-2 [1]; after the first operation (Day 10 after 1st, Day 6 after 2nd operation), P<0.05
  TG IL-2 concentration levels higher than the control group: 90-100%
IL-2 [1]; treatment group
  IL-2 concentration in TG, pre- versus post-operation: no significant difference between pre- and post-operation
IL-2 [1]; treatment group n=8, oral 45 mg/kg BW (30% cysteamine compound), pre-operation Concentrate phase, listed as Cysteamine, hydrochloride, 45 mg/kg
  IL-2 serum concentration: 0.97 ± 0.15 µg/L
IL-2 [1]; treatment group n=8, oral 45 mg/kg BW (30% cysteamine compound), pre-operation Concentrate phase, listed as cysteamine compound, hydrochloride, 45 mg/kg
  IL-2 serum concentration: 0.97 ± 0.15 µg/L
IL-2 [1]; treatment group, oral 45 mg/kg BW, after 1st (rumen) operation, Day 10, listed as Cysteamine, hydrochloride, 45 mg/kg
  IL-2 serum concentration: 1.32 ± 0.10 ^A ug/l
IL-2 [1]; treatment group, oral 45 mg/kg BW, after 1st (rumen) operation, Day 10, listed as cysteamine compound, hydrochloride, 45 mg/kg
  IL-2 serum concentration: 1.32 ± 0.10 µg/L
IL-2 [1]; treatment group, oral 45 mg/kg BW, after 2nd (duodenum) operation, Day 6, listed as Cysteamine, hydrochloride, 45 mg/kg
  IL-2 serum concentration: 0.95 ± 0.06 ^B ug/l
IL-2 [1]; treatment group, oral 45 mg/kg BW, after 2nd (duodenum) operation, Day 6, listed as cysteamine compound, hydrochloride, 45 mg/kg
  IL-2 serum concentration: 0.95 ± 0.06 µg/L
IL-2 [1]; treatment group, oral 45 mg/kg BW, after 2nd (duodenum) operation, Day 17
  IL-2 serum concentration: 1.02 ± 0.08 µg/L
Lymphatic cells; TG versus control group, P<0.05
  degree of decrease in lymphatic cells transformation rate caused by surgical operations: significantly smaller than that of the control group
Lymphatic cells; six days after the 2nd/duodenum operation, P<0.05
  rate of TG lymphatic cell transformation increased compared to the rate of the control group: 3.5 fold
Lymphatic cells; treatment group, oral 45 mg/kg BW, Concentrate phase pre-operation, P=0.14 vs control
  lymphatic cells transformation rate (SI): 132.4±20.3
IL-2 [2]; Treatment 1: 40 mg/kg BW oral
  Plasma IL-2: 5.88 ± 0.53 pg/mL
IL-2 [2]; Treatment 2: 80 mg/kg BW oral
  Plasma IL-2: 5.76 ± 0.50 pg/mL
IL-6; Treatment 1: 40 mg/kg BW oral
  Plasma IL-6: 226.20 ± 37.93 pg/mL
IL-6; Treatment 2: 80 mg/kg BW oral
  Plasma IL-6: 247.00 ± 51.76 pg/mL
K562 cells; Treatment 1: 40 mg/kg BW oral
  NK Killing Rate: 92.19 ± 2.20%
K562 cells; Treatment 2: 80 mg/kg BW oral
  NK Killing Rate: 93.60 ± 2.21%
Male C57BL/6N mice [3]; Treatment 1: 40 mg/kg BW oral
  Spleen weight: 298 ± 5.03 mg/100 g of body weight
  Thymus weight: 549 ± 1.89 ^B mg/100 g of body weight
Male C57BL/6N mice [3]; Treatment 2: 80 mg/kg BW oral
  Spleen weight: 296 ± 7.50 mg/100 g of body weight
  Thymus weight: 567 ± 7.18 ^A mg/100 g of body weight
lymphocyte; Treatment 1: 40 mg/kg BW oral
  Lymphocyte Transformation (SI Value, Stimulation Index): 1.15 ± 0.02 ^B
lymphocyte; Treatment 2: 80 mg/kg BW oral
  Lymphocyte Transformation (SI Value, Stimulation Index): 1.24 ± 0.05 ^A
Male C57BL/6N mice [4]; Treatment 1: 40 mg/kg BW oral
  WBC Count: 7.12 ± 0.65 10^9/L
Male C57BL/6N mice [4]; Treatment 2: 80 mg/kg BW oral
  WBC Count: 7.53 ± 0.55 10^9/L
cortisol; TG, before the operation
  cortisol concentration before the operation: 20.32±4.0 ug 1^−1
cortisol; treatment group
  changes in cortisol concentration levels in the TG before and after the 1st operation: slight
cortisol; treatment group n=8, oral 45 mg/kg BW, pre-operation Concentrate phase
  cortisol serum concentration: 20.3 ± 4.0 µg/L
cortisol; treatment group, after 1st operation, Day 10
  cortisol serum concentration: 20.9 ± 3.7 µg/L
cortisol; treatment group, after 2nd operation, Day 6
  cortisol serum concentration: 21.2 ± 5.2 µg/L
cortisol; treatment group, after 2nd operation, Day 17
  cortisol serum concentration: 20.7 ± 5.8 µg/L
Spleen B-cells; Treatment 1: 40 mg/kg BW oral
  Antibody Forming Cell (OD, Optical Density): 1.48 ± 0.19 ^A OD
Spleen B-cells; Treatment 2: 80 mg/kg BW oral
  Antibody Forming Cell (OD, Optical Density): 0.91 ± 0.51 ^C OD
